SMILES strings stand for the structures.

The experiment has as its system WT Mtb Erdman strain. Kind of experiment: Microplate Alamar Blue Assay (MABA), Mtb growth inhibition. The experiment is classed as cell-based, Mycobacterium tuberculosis. The settings on record: Mycobacterium tuberculosis, ERDMAN, 168 h, Middlebrook 7H9 media, 7 days at 37° C. in 5% CO2. (In general: The colour change of resazurin is a common sign of viable cells or microbes.)
What is called IC50 is the concentration that inhibits the measured activity by half. A low value points to inhibition by little substance. Compound `Cc1cc2c(NCCCc3ccc(-c4ccc(OC(F)(F)F)cn4)cc3)nc(-c3ccoc3)nc2s1` [Example 388, 2-(furan-3-yl)-6-methyl-N-(3-(4-[5-(trifluoro-methoxy)pyridin-2-yl]phenyl)propyl)thieno[2,3-d]pyrimidin-4-amine] registered an IC50 of 7 nM. The same measure for `CCc1nc(NCCCc2ccc(-c3ccccn3)cc2)c2cc(C)sc2n1` [Example 368, 2-ethyl-6-methyl-N-(3-(4-(pyridin-2-yl)phenyl)propyl) thieno[2,3-d] pyrimidin-4-amine]: 210 nM; for `Cc1cc2c(NCCCc3ccc(-c4ccc(OC(F)(F)F)cc4)cc3)nc(-c3cncn3C)nc2s1` [Example 444, 6-methyl-2-(1-methyl-1H-imidazol-5-yl)-N-(3-(4′-(trifluoromethoxy)-[1,1′-biphenyl]-4-yl)propyl)thieno[2,3-d]pyrimidin-4-amine]: 5500 nM. The same measure for `COc1ccc(-c2nc(N[C@@H]3C[C@H]3c3ccc(F)c(F)c3)c3cc(C)sc3n2)cc1` [Example 498, N-((1R,2S)-2-(3,4-difluorophenyl)cyclopropyl)-2-(4-methoxyphenyl)-6-methylthieno[2,3-d]pyrimidin-4-amine]: 4100 nM; for `CCc1nc(NCCCOc2ccccc2)c2cc(C)sc2n1` [Example 64, 2-ethyl-6-methyl-N-(3-phenoxypropyl)thieno [2,3-d]pyrimidin-4-amine]: 1700 nM; for `Cc1cc2c(NCCCc3ccc(-c4ccc(Cl)cc4)cc3)nc(-c3ccc(F)cc3)nc2s1` [Example 436, N-(3-(4′-chloro-[1,1′-biphenyl]-4-yl)propyl)-2-(4-fluorophenyl)-6-methylthieno[2,3-d]pyrimidin-4-amine]: 220 nM. In turn, `Cc1cc2c(NCCCc3ccccc3)nc(-c3cccs3)nc2s1` [Example 63, 6-methyl-N-(3-phenylpropyl)-2-(thiophen-2-yl)thieno[2,3-d]pyrimidin-4-amine] returned a half-inhibitory concentration (IC50) of 1900 nM. Then `C=C(C)c1nc(NCCCc2ccccc2)c2cc(C)sc2n1` [Example 582, 6-methyl-N-(3-phenylpropyl)-2-(prop-1-en-2-yl)thieno[2,3-d]pyrimidin-4-amine], with 170 nM; and `CCOc1nc(NCCCc2ccc(-c3ccc(OC(F)(F)F)cc3)cc2)c2cc(C)sc2n1` [Example 546, 2-ethoxy-6-methyl-N-(3-(4′-(trifluoromethoxy)-[1,1′-biphenyl]-4-yl)propyl)thieno[2,3-d]pyrimidin-4-amine], with 15 nM; and `CCc1nc(NCCCc2ccc(N3CCOCC3)cc2)c2cc(C)sc2n1` [Example 420, 2-ethyl-6-methyl-N-(3-(4-morpholinophenyl)propyl)thieno[2,3-d]pyrimidin-4-amine], with 160 nM. The same measure for `Cc1cc(-c2nc(NCCCc3ccc(-c4ccc(OC(F)(F)F)cc4)cc3)c3cc(C)sc3n2)no1` [Example 264, 6-methyl-2-(5-methylisoxazol-3-yl)-N-(3-(4′-(trifluoromethoxy)-[1,1′-biphenyl]-4-yl)propyl)thieno [2,3-d]pyrimidin-4-amine]: 40 nM; for `CCc1nc(NCCCc2ccc(-c3ccc(S(C)(=O)=O)cc3)cc2)c2cc(C)sc2n1` [Example 272, 2-ethyl-6-methyl-N-(3-(4′-(methylsulfonyl)-[1,1′-biphenyl]-4-yl)propyl)thieno [2,3-d]pyrimidin-4-amine]: 270 nM; for `Cc1cc2c(NCCCc3ccccc3)nc(N3CC(F)C3)nc2s1` [Example 512, 2-(3-fluoroazetidin-1-yl)-6-methyl-N-(3-phenylpropyl)thieno[2,3-d]pyrimidin-4-amine]: 610 nM. Then `CCc1nc(NCCCc2ccc(-c3ncccn3)cc2)c2cc(C)sc2n1` [Example 372, 2-ethyl-6-methyl-N-(3-(4-(pyrimidin-2-yl)phenyl)propyl) thieno[2,3-d]pyrimidin-4-amine], with 250 nM; and `Cc1cc2c(NCCCc3ccccc3Cl)nc(C(F)(F)F)nc2s1` [Example 249, N-(3-(2-chlorophenyl)propyl)-6-methyl-2-(trifluoromethyl)thieno [2,3-d]pyrimidin-4-amine], with 4000 nM; and `Cc1cc2c(NCCCc3ccc(-c4ccc(F)cc4)cc3)nc(N(C)C)nc2s1` [Example 556, N4-(3-(4′-fluoro-[1,1′-biphenyl]-4-yl)propyl)-N2,N2,6-trimethylthieno[2,3-d]pyrimidine-2,4-diamine], with less than 4 nM. Consider `Cc1ccc(CCCNc2nc(C(F)(F)F)nc3sc(C)cc23)cc1` [Example 244, 6-methyl-N-(3-(p-tolyl)propyl)-2-(trifluoromethyl) thieno[2,3-d] pyrimidin-4-amine], for which the IC50 turned out to be 1000 nM. With `CCc1nc(NCCCn2cccn2)c2cc(C)sc2n1` [Example 197, N-(3-(1H-pyrazol-1-yl)propyl)-2-ethyl-6-methylthieno[2,3-d]pyrimidin-4-amine], half-maximal inhibition (IC50) was put at 8200 nM. Then `Cc1nc(NCCCc2ccc(-c3ccc(OC(F)(F)F)cc3)cc2)c2cc(C)sc2n1` [Example 445, 2,6-dimethyl-N-(3-(4′-(trifluoromethoxy)-[1,1′-biphenyl]-4-yl)propyl)thieno[2,3-d]pyrimidin-4-amine], with 160 nM; and `CCOc1nc(N[C@@H]2C[C@H]2c2ccc(F)c(F)c2)c2cc(C)sc2n1` [Example 150, N-((1R,2S)-2-(3,4-difluorophenyl)cyclopropyl)-2-ethoxy-6-methylthieno[2,3-d]pyrimidin-4-amine], with 380 nM. As to `Cc1cc2c(N[C@@H]3C[C@H]3c3ccc(F)c(F)c3)nc(-c3ccc(O)cc3)nc2s1` [Example 497, 4-(4-(((1R,2S)-2-(3,4-difluorophenyl)cyclopropyl)amino)-6-methylthieno[2,3-d]pyrimidin-2-yl)phenol], the concentration for half-maximal inhibition (IC50) is greater than 10000 nM. Then `Cc1cc2c(N[C@@H]3C[C@H]3c3ccc(F)c(F)c3)nc(Cl)nc2s1` [Example 222, 2-chloro-N-((1R,2S)-2-(3,4-difluorophenyl)cyclopropyl)-6-methylthieno[2,3-d]pyrimidin-4-amine], with 1500 nM; and `CCc1nc(NC2CC(c3ccccc3)C2)c2cc(C)sc2n1` (centres unmarked) [Example 5, 2-ethyl-6-methyl-N-(3-phenylcyclobutyl) thieno[2,3-d]pyrimidin-4-amine], with 2100 nM; and `Cc1cc2c(NCCCc3ccccc3)nc(N3CCSCC3)nc2s1` [Example 507, 6-methyl-N-(3-phenylpropyl)-2-thiomorpholinothieno[2,3-d]pyrimidin-4-amine], with greater than 10000 nM. Then `Cc1cnc(-c2ccc(CCCNc3nc(-c4ccoc4)nc4sc(C)cc34)cc2)cn1` [Example 393, 2-(furan-3-yl)-6-methyl-N-(3-[4-(5-methyl-pyrazin-2-yl)phenyl]propyl) thieno[2,3-d] pyrimidin-4-amine], with 16 nM; and `CCc1nc(NCCCOc2ccc(Cl)cc2)c2cc(C)sc2n1` [Example 69, N-(3-(4-chlorophenoxy)propyl)-2-ethyl-6-methylthieno[2,3-d]pyrimidin-4-amine], with 1100 nM; and `Cc1cc2c(N[C@@H]3C[C@H]3c3ccc(F)c(F)c3)nc(N)nc2s1` [Example 527, N4-((1R,2S)-2-(3,4-difluorophenyl)cyclopropyl)-6-methylthieno[2,3-d]pyrimidine-2,4-diamine], with greater than 10000 nM. Then `COc1nc(NCCCc2ccc(-c3ccc(OC(F)(F)F)cc3)cc2)c2cc(C)sc2n1` [Example 545, 2-methoxy-6-methyl-N-(3-(4′-(trifluoromethoxy)-[1,1′-biphenyl]-4-yl)propyl)thieno[2,3-d]pyrimidin-4-amine], with 10 nM; and `Cc1cc2c(NCCCc3ccc(-c4ccc(Cl)c(Cl)c4)cc3)nc(-c3ccoc3)nc2s1` [Example 298, N-(3-(3′,4′-dichloro-[1,1′-biphenyl]-4-yl)propyl)-2-(furan-3-yl)-6-methylthieno[2,3-d]pyrimidin-4-amine], with 26 nM; and `CCc1nc(NCCc2cccc(Cl)c2)c2cc(C)sc2n1` [Example 8, N-(3-chlorophenethyl)-2-ethyl-6-methylthieno[2,3-d]pyrimidin-4-amine], with 690 nM. `Cc1cc2c(NCCCc3ccccc3)nc(-c3ccncn3)nc2s1` [Example 78, 6-methyl-N-(3-phenylpropyl)-2-(pyrimidin-4-yl)thieno[2,3-d]pyrimidin-4-amine]: the IC50 was 160 nM. Compared with the last compound, the IC50 is about 4.3-fold lower. `Cc1cc2c(NCCCc3ccccc3)nc(-c3ccco3)nc2s1` [Example 113] returned an IC50 of 800 nM.

For the compound `Cc1cc2c(NCCCc3cccs3)nc(C(F)(F)F)nc2s1` [Example 239, 6-methyl-N-(3-(thiophen-2-yl)propyl)-2-(trifluoromethyl) thieno[2,3-d] pyrimidin-4-amine], the IC50 is greater than 6800 nM. Then `Cc1cc2c(NCCCc3ccc(-c4ccc(C(F)(F)F)nc4)cc3)nc(Cl)nc2s1` [Example 438, 2-chloro-6-methyl-N-(3-(4-(6-(trifluoromethyl)pyridin-3-yl)phenyl)propyl)thieno[2,3-d]pyrimidin-4-amine], with 140 nM. The same measure for `CCc1nc(NCCCc2ccc(-c3cccnc3)cc2)c2cc(C)sc2n1` [Example 275, 2-ethyl-6-methyl-N-(3-(4-(pyridin-3-yl)phenyl)propyl) thieno[2,3-d]pyrimidin-4-amine]: 180 nM; for `CCc1nc(NCCCc2ccc(-c3cccnn3)cc2)c2cc(C)sc2n1` [Example 373, 2-ethyl-6-methyl-N-(3-(4-(pyridazin-3-yl)phenyl)propyl) thieno[2,3-d] pyrimidin-4-amine]: 1000 nM. For the compound `Cc1cc2c(NCCCc3ccc(-c4ccsc4)cc3)nc(-c3ccoc3)nc2s1` [Example 334, 2-(furan-3-yl)-6-methyl-N-(3-[4-(thiophen-3-yl)phenyl]propyl) thieno[2,3-d]pyrimidin-4-amine], the IC50 amounted to 8 nM. This IC50 is about 120-fold lower than that of the compound before. In turn, `CSc1nc(NCCCc2ccc(-c3ccc(C4CC4)cc3)cc2)c2cc(C)sc2n1` [Example 430, N-(3-(4′-cyclopropyl-[1,1′-biphenyl]-4-yl)propyl)-6-methyl-2-(methylthio)thieno[2,3-d]pyrimidin-4-amine] showed an IC50 of 18 nM.

The values above are taken from patent US20240279236A1, “COMPOUNDS AND METHODS OF TREATING TUBERCULOSIS” (Fimbrion Therapeutics, Inc., priority 2021, published 2024).
